# Assay results: ChEMBL document CHEMBL3804802, “Novel sulfonamide bearing coumarin scaffolds as selective inhibitors of tumor associated carbonic anhydrase isoforms IX and XII” (Bioorg Med Chem, 2016)
# Biological target: Carbonic anhydrase 9 (Homo sapiens, UniProt Q16790)
# Test: Inhibition of human carbonic anhydrase 9 using saturated CO2 as substrate incubated for 10 mins prior to testing by stopped-flow CO2 hydrase assay
row,Ki [nM],SMILES
1,28.6,Cc1ccc(-c2nn(-c3ccc(S(N)(=O)=O)cc3)cc2/C=N\Nc2nc(-c3cc4ccccc4oc3=O)cs2)cc1
2,23.6,NS(=O)(=O)c1ccc(Nc2nc(-c3cc4cc(Br)ccc4oc3=O)cs2)cc1
3,19.7,NS(=O)(=O)c1ccc(-n2cc(/C=N\Nc3nc(-c4cc5ccccc5oc4=O)cs3)c(-c3ccccc3)n2)cc1
4,2.32,NS(=O)(=O)c1ccc(-n2cc(/C=N\Nc3nc(-c4cc5ccccc5oc4=O)cs3)c(-c3ccc(Cl)cc3)n2)cc1
5,23.8,NS(=O)(=O)c1ccc(Nc2nc(-c3cc4ccccc4oc3=O)cs2)cc1
6,24.9,NS(=O)(=O)c1ccc2c(c1)sc1nc(-c3cc4cc(Br)ccc4oc3=O)cn12
7,20.1,COc1ccc(-c2nn(-c3ccc(S(N)(=O)=O)cc3)cc2/C=N\Nc2nc(-c3cc4cc(Br)ccc4oc3=O)cs2)cc1
8,26.5,NS(=O)(=O)c1ccc(-n2cc(/C=N\Nc3nc(-c4cc5cc(Br)ccc5oc4=O)cs3)c(-c3ccc(F)cc3)n2)cc1
9,23.1,NS(=O)(=O)c1ccc(-n2cc(/C=N\Nc3nc(-c4cc5cc(Br)ccc5oc4=O)cs3)c(-c3ccc(Cl)cc3)n2)cc1
10,2.54,NS(=O)(=O)c1ccc(-n2cc(/C=N\Nc3nc(-c4cc5cc(Cl)ccc5oc4=O)cs3)c(-c3ccc(F)cc3)n2)cc1
11,2.28,NS(=O)(=O)c1ccc(-n2cc(/C=N\Nc3nc(-c4cc5ccccc5oc4=O)cs3)c(-c3ccc(F)cc3)n2)cc1
12,26,Cc1ccc(-c2nn(-c3ccc(S(N)(=O)=O)cc3)cc2/C=N\Nc2nc(-c3cc4cc(Br)ccc4oc3=O)cs2)cc1
13,21.6,COc1ccc(-c2nn(-c3ccc(S(N)(=O)=O)cc3)cc2/C=N\Nc2nc(-c3cc4ccccc4oc3=O)cs2)cc1
14,58.6,C/C(=N\Nc1ccc(S(N)(=O)=O)cc1)c1cc2ccccc2oc1=O
15,21.6,NS(=O)(=O)c1ccc(-n2cc(/C=N\Nc3nc(-c4cc5cc(Br)ccc5oc4=O)cs3)c(-c3ccccc3)n2)cc1
16,28.1,NS(=O)(=O)c1ccc(-n2cc(/C=N\Nc3nc(-c4cc5cc(Cl)ccc5oc4=O)cs3)c(-c3ccc(Cl)cc3)n2)cc1
17,28.3,NS(=O)(=O)c1ccc(-n2cc(/C=N\Nc3nc(-c4cc5cc(Cl)ccc5oc4=O)cs3)c(-c3ccccc3)n2)cc1
18,2.35,C/C(=N\Nc1ccc(S(N)(=O)=O)cc1)c1cc2cc(Cl)ccc2oc1=O
19,11.4,NS(=O)(=O)c1ccc2c(c1)sc1nc(-c3cc4cc(Cl)ccc4oc3=O)cn12
20,20.4,COc1ccc(-c2nn(-c3ccc(S(N)(=O)=O)cc3)cc2/C=N\Nc2nc(-c3cc4cc(Cl)ccc4oc3=O)cs2)cc1
21,23.6,C/C(=N\Nc1ccc(S(N)(=O)=O)cc1)c1cc2cc(Br)ccc2oc1=O

row,SMILES,Ki [nM]
1,NS(=O)(=O)c1ccc2c(c1)sc1nc(-c3cc4ccccc4oc3=O)cn12,43.6
2,Cc1ccc(-c2nn(-c3ccc(S(N)(=O)=O)cc3)cc2/C=N\Nc2nc(-c3cc4cc(Cl)ccc4oc3=O)cs2)cc1,24.5
3,NS(=O)(=O)c1ccc(Nc2nc(-c3cc4cc(Cl)ccc4oc3=O)cs2)cc1,25
